From the supplement of paper PMC5844555

Columns and labels:
Test in all cases: 3' UTR reporter interaction score (median-centred robust z-score of log2 firefly/Renilla activity); higher = less repression of the 3' UTR reporter
Settings in all cases: HEK293T; 48 h
MYC = tested on: MYC
Method in brief: (§1)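 The interaction score is based on the log-transformed firefly/Renilla luciferase ratio, scaled as a robust z-score within each plate by median and median absolute deviation and median-centred for each miRNA; more negative scores indicate interaction. It was averaged over at least two independent screens. Readings were taken 48 h after HEK293T cells (10,000/well, 96-well plates) were co-transfected by DharmaFECT Duo with 100 ng firefly luc2P 3' UTR reporter, 20 ng Renilla pRL-TK and 2.5 pmol miRNA mimic.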

NOTCH1 = tested on: NOTCH1
Method in brief: as §1

PHOX2B = tested on: PHOX2B
Method in brief: as §1

HRAS = tested on: HRAS
Method in brief: as §1

RB1 = tested on: RB1
Method in brief: as §1

MYT1L = tested on: MYT1L
Method in brief: as §1

BRCA2 = tested on: BRCA2
Method in brief: as §1

MYB = tested on: MYB
Method in brief: as §1

PHF6 = tested on: PHF6
Method in brief: as §1

MYCN = tested on: MYCN
Method in brief: as §1

ZEB2 = tested on: ZEB2
Method in brief: as §1

TP53 = tested on: TP53
Method in brief: as §1

FBXW7 = tested on: FBXW7
Method in brief: as §1

EZH2 = tested on: EZH2
Method in brief: as §1

| Sequence | 3' UTR reporter interaction score (MYC) | 3' UTR reporter interaction score (NOTCH1) | 3' UTR reporter interaction score (PHOX2B) | 3' UTR reporter interaction score (HRAS) | 3' UTR reporter interaction score (RB1) | 3' UTR reporter interaction score (MYT1L) | 3' UTR reporter interaction score (BRCA2) | 3' UTR reporter interaction score (MYB) | 3' UTR reporter interaction score (PHF6) | 3' UTR reporter interaction score (MYCN) | 3' UTR reporter interaction score (ZEB2) | 3' UTR reporter interaction score (TP53) | 3' UTR reporter interaction score (FBXW7) | 3' UTR reporter interaction score (EZH2) |
| --- | --- | --- | --- | --- | --- | --- | --- | --- | --- | --- | --- | --- | --- | --- |
| UAAAGUAAAUAUGCACCAAAA | 0.043 | 0.429 | 1.69 | 0.372 | -0.322 | -0.0291 | -0.0915 | -0.21 | -0.814 | -0.59 | -0.265 | 0.703 | -0.197 | 0.367 |
| CUCUAGAGGGAAGCACUUUCUCU | 0.549 | 0.176 | -2.05 | 1.4 | -0.223 | 0.381 | -0.0386 | 2.18 | -0.193 | -0.181 | -0.685 | -0.432 | -2.17 | -0.139 |
| UAAAGUGCUGACAGUGCAGAU | 0.528 | 0.373 | 0.0581 | 0.312 | -0.838 | -2.37 | 0.319 | -0.631 | 0.442 | -0.735 | 0.619 | -0.0101 | -0.356 | -0.906 |
| GCGUGCGCCGGCCGGCCGCC | -1.82 | -0.272 | 0.436 | -0.392 | -0.23 | -0.142 | 0.432 | -0.399 | 1.71 | -1.25 | -0.647 | 0.961 | 0.516 | 0.589 |
| GGGCGCCUGUGAUCCCAAC | -0.484 | -0.381 | 0.588 | -0.201 | -0.433 | 0.181 | -0.242 | 0.137 | -0.831 | -0.708 | -0.0882 | 0.186 | 0.114 | 0.0894 |
| AUCCCUUGCAGGGGCUGUUGGGU | 0.108 | 0.359 | -1.62 | -0.0656 | -0.201 | 0.613 | -0.445 | 0.681 | -0.0289 | 0.104 | 1.78 | -0.855 | -1.6 | 0.197 |
| AAUGGCGCCACUAGGGUUGUGCA | -0.44 | -0.589 | 1.04 | -0.363 | -0.957 | -0.00801 | -0.437 | 0.208 | 0.0523 | 0.439 | 0.407 | -0.436 | -0.576 | -0.534 |
| AGGGGUGGUGUUGGGACAGCUCCGU | -0.499 | -4.27 | -0.841 | -1.12 | 0.429 | -0.319 | -0.768 | -0.179 | -0.137 | 0.408 | 0.212 | 0.0145 | 0.925 | 0.203 |
| UAGCACCAUUUGAAAUCGGU | 0.499 | 0.946 | -0.0846 | 0.156 | -0.0587 | -0.0531 | 0.875 | 0.262 | -0.281 | -3.2 | -0.664 | -0.108 | -2.01 | 0.53 |
| AAUAAUACAUGGUUGAUCUUU | 0.609 | -0.442 | -0.121 | -0.598 | -0.0974 | -0.318 | -0.146 | 0.0772 | 1.16 | -0.572 | -1.86 | -0.77 | -0.364 | 0.433 |
| AACAUUCAACCUGUCGGUGAGU | -0.157 | 0.774 | 0.334 | -0.974 | 0.216 | 1.67 | -1.56 | 1.08 | 0.226 | -1.2 | 1.39 | -0.761 | 0.747 | -0.0307 |
| AUGUAUGUGUGCAUGUGCAUG | -1.3 | -0.54 | -0.089 | 0.472 | -1.83 | -0.904 | -0.994 | -0.0409 | -1.08 | 0.324 | -0.0851 | 0.0318 | 0.682 | 1.67 |
| ACUUGGGCACUGAAACAAUGUCC | 0.112 | -4.15 | 0.564 | -0.00106 | 0.0718 | 0.0827 | -0.973 | -0.103 | 1.39 | 0.382 | 1.78 | -1.34 | -0.0493 | -1.19 |
| AGACCAUGGGUUCUCAUUGU | 0.53 | -0.0186 | -1.43 | -0.0387 | -1.2 | 0.673 | -2.41 | -0.2 | 1.61 | 0.149 | -1.1 | -0.82 | -0.214 | 0.304 |
| GCGAGGACCCCUCGGGGUCUGAC | -0.466 | -0.131 | 0.436 | 0.0816 | 0.707 | -0.47 | 0.357 | 0.547 | -0.251 | -0.654 | -0.584 | 0.0903 | 0.437 | -0.18 |
| AGCUGGUGUUGUGAAUC | 0.179 | 0.152 | 0.54 | -0.334 | -0.243 | 0.16 | -0.493 | 0.129 | -0.508 | 0.275 | 0.43 | 0.136 | -0.398 | -0.157 |
| UCAGUGCAUCACAGAACUUUGU | 0.216 | 0.0134 | -0.909 | -0.998 | 1.28 | 1.61 | -1.11 | -1.04 | 0.428 | 0.974 | 1.9 | -0.15 | 0.15 | -0.211 |
| CACACACUGCAAUUACUUUUGC | 0.144 | -1.12 | 0.662 | 0.537 | -0.83 | 0.0502 | 1.28 | -0.132 | -0.242 | 0.192 | -2.35 | 0.266 | -1.17 | 0.0197 |
| ACUGCAGUGAAGGCACUUGU | 0.291 | 0.45 | -0.6 | 0.389 | -0.0483 | -0.459 | 0.0527 | 0.157 | -0.789 | 0.762 | -0.791 | -0.642 | -0.112 | -0.638 |
